These results are taken from patent US20160091485A1, “MARKERS FOR EZH2 INHIBITORS” (THE BROAD INSTITUTE, INC., priority 2013, published 2016).

Molecules are shown by their SMILES.

Assay [1] concerns cells carrying EZH2 gain of function mutation, not in cluster A (low levels of H3K27me3). Description: Cell proliferation, EZH2 gain of function cells not in cluster A. To be noted: FIG. 6, cells predicted sensitive by genotyping, insensitive by MCS. Format: cell-based. The procedure: (§1) B cell lymphoma cells were cultured using standard cell culture conditions. For example, lymphoma cells were cultured in RPMI-1640 (Invitrogen, cat #11875, Grand Island, N.Y.) supplemented with 15% FBS (Invitrogen, cat #10099-141, Grand Island, N.Y.) in humidified incubator at 37° C., 5% CO2. To assess the effect of EZH2 inhibitor on cell proliferation, exponentially growing cells were seeded at a density of 1×10^5 cells/ml in 12-well plate (Corning, cat #CLS3513 Tewksbury, Mass.). Compounds were added after cell seeding at the indicated final concentration, and viable cell number was determined every 3-4 days continuously during the course of experiment using Vi-CELL (Beckman Coulter, Brea, Calif.). On days of cell counting, fresh growth media and compound were replenished and cells split back to a density of 1×10^5 cells/ml. Total cell number and population doubling was then calculated.

For assay [2], the target named is Y641F EZH2 (Homo sapiens, UniProt Q15910, Y641F). To be noted: SAM competitive; cited from earlier work.
Sequence of Y641F EZH2 (Q15910 whole entry Y641F): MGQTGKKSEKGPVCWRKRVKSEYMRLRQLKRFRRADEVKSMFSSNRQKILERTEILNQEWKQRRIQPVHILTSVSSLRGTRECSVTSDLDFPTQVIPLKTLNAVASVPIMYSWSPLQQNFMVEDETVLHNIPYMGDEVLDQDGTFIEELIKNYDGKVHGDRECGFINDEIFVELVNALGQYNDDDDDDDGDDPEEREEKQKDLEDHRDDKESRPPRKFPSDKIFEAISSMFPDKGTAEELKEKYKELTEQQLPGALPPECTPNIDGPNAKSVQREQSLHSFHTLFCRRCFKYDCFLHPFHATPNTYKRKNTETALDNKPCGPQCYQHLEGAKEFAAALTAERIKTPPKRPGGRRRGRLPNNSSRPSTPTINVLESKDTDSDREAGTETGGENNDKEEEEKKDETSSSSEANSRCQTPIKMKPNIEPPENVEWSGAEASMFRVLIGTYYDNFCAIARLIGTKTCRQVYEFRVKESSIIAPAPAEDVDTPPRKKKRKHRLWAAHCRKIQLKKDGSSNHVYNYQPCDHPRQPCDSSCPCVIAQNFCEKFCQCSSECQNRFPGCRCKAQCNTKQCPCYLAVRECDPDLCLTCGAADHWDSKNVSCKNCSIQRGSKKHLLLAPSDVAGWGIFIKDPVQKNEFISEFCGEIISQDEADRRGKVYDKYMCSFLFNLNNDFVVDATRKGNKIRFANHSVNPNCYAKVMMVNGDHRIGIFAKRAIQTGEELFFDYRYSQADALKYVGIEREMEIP
Sequence of Y641F EZH2 (O75530 whole entry partner): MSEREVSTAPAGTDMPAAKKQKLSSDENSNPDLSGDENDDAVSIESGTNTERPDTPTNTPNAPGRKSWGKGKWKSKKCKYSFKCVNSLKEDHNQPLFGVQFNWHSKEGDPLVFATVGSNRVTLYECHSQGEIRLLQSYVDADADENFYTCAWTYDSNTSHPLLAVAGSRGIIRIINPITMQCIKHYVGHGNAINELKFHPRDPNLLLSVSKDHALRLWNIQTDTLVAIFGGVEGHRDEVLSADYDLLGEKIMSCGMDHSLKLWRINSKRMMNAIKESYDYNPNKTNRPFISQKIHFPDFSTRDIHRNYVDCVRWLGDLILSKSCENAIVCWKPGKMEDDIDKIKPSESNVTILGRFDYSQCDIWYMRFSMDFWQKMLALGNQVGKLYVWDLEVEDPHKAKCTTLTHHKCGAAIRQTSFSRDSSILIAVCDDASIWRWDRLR
Sequence of Y641F EZH2 (Q15022 whole entry partner): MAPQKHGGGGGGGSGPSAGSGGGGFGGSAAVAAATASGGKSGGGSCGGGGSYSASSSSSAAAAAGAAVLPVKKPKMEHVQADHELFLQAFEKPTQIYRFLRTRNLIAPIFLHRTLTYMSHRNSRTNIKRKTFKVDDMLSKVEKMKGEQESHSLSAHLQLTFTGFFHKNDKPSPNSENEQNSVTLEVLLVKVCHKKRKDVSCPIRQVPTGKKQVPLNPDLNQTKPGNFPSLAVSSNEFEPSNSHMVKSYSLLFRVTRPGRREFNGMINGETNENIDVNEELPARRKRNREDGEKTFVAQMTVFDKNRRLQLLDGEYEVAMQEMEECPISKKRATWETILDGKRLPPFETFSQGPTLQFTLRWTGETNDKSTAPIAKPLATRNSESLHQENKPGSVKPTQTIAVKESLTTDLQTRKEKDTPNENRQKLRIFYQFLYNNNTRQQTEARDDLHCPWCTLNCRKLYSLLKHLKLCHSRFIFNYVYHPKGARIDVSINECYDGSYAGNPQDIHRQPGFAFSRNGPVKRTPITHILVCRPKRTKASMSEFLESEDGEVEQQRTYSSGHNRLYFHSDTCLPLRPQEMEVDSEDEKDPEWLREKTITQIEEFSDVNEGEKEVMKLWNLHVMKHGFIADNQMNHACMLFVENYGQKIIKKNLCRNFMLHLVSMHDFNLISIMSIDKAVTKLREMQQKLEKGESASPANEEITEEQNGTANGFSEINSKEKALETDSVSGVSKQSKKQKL
Assay [3] concerns the target wild type EZH2 (Homo sapiens, UniProt Q15910). To be noted: SAM competitive; cited from earlier work.
Assay [4] concerns cancer cell lines with EZH2 gain-of-function mutations (MCS Cluster A). Description: Cell proliferation, cell lines sensitive by EZH2 genotype and MCS (cluster A). The conditions noted are these: FIG. 5; cells predicted to be sensitive by EZH2 genotyping and by MCS. Format: cell-based. The method, then: as §1

Sequence of wild type EZH2 (Q15910 whole entry): as the sequence (Q15910 whole entry Y641F) above, with F641Y counted along it
Sequence of wild type EZH2 (O75530 whole entry partner): as the sequence (O75530 whole entry partner) above
Sequence of wild type EZH2 (Q15022 whole entry partner): as the sequence (Q15022 whole entry partner) above

A word on the IC50: it is the concentration that gives 50% inhibition. Consider `CCC(CC)n1ccc2c(C(=O)NCc3c(C)cc(C)[nH]c3=O)cc(C#N)cc21` [EI1, 6-cyano-N-((4,6-dimethyl-2-oxo-1,2-dihydropyridin-3-yl)methyl)-1-(pentan-3-yl)-1H-indole-4-carboxamide], for which the entries for the “sensitivity of cells to EZH2 inhibitor (cell proliferation)” value in assay [1] and in assay [4] were “insensitive” and “sensitive”, respectively. The values for the IC50 in assay [2] and in assay [3] were 13.2 nM and 9.4 nM, respectively.
